In US8158621B2, “Methods of treating or preventing autoimmune diseases with 2,4-pyrimidinediamine compounds” (Rigel Pharmaceuticals, Inc., priority 2002, dated 2012):

What was measured:
[1] = tested on: Primary T-cells; assay: Primary T-cell cytokine production (αCD3/αCD28): IL-2; format: cell-based, human; conditions: read-out: 1° T-Cell IL2 IC50
Description: (§1) 2E8-4E8 PBMC or proliferating T cells grown in rIL-2 from healthy human donors were suspended in PBS were spun down (1500 rpm, 8-10 minutes) and resuspended in 100 ml RPMI Complete media (1% Pen-Strep, 1% L-Glutamine, 10 mM HEPES). The cells were plated in T175 flasks (37° C., 5% CO2) and monocytes were allowed to adhere for 2-3 hours. After monocyte attachment, non-adherent cells were harvested, counted by hemocytometer, washed several times with PBS then resuspended in Yssels Complete Media (Modified IMDM Media with 1% Human AB Serum, 1% Pen-Strep, 1% L-Glutamine, 10 mM HEPES) at […]. 90 uL of the cell dilution were then added to compounds diluted to 2× in Yssel's media and incubated for 30 minutes at 37° C. (5% CO2). After this preincubation step the compound/cell mixture was transferred to stimulation plates, as described below.
(§2) Stimulation plates were prepared by coating 96 well plates with 5 μg/ml αCD3 (BD PharMingen, Catalog #555336)+10 μg/ml αCD28 (Beckman Coulter, Catalog #IM1376) in PBS (no Ca^2+/Mg^2+) at 37° C. (5% CO2) for at 3-5 hours. After incubation with the stimulation antibodies, the cocktail was removed and the plates washed 3 times with PBS prior to addition of the primary T cell/compound mixture.
(§3) The compound/cell mixture was transferred to the stimulation plates and incubated for 18 hr at 37° C. (5% CO2). After the cell stimulation, ˜150 μl supernatant were transferred from each well into 96-well filter plates (Coming PVDF Filter Plates) spun down (2000 rpm, 2-3 minutes) and either used immediately for ELISA or LUMINEX measurements or frozen down at −80° C. for future use.
IL-2 ELISAs were performed using the Quantikine Human IL-2 ELISA kit (R&D Systems, Catalog # D2050) as described by the manufacturer and absorption was measured on a spectrophotometer at 450 nm wavelength. Blank values were substracted and absorbances were converted to pg/mL based on the standard curve.
(§4) Luminex immunoassay multiplexing for TNF, IL-2, GMSCF, IL-4 and IFNg was performed essentially as described by the manufacturer (Upstate Biotechnology). Essentially 50 uL of sample was diluted into 50 uL assay diluent and 50 uL incubation buffer, then incubated with 100 uL of the diluted detection antibody for 1 hr at RT in the dark. The filter plate was washed 2× in Wash Buffer, then incubated with 100 uL of the diluted secondary reagent (SAV-RPE) for 30 min at RT in the dark. Finally the plates were washed 3 times and bead identification and RPE fluorescent measured by the Luminex instrument.
(§5) Varied concentrations of compound were compared to solvent only to determine the inhibition of T-cell activation IC50 of each compound.

[2] = tested on: cultured human mast cells (CHMC); assay: CHMC low cell density IgE activation: tryptase assay; format: cell-based; conditions: low cell density; read-out: CHMC anti-IgE Tryptase
In short: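 Read-out: tryptase released into supernatant, measured by substrate turnover over 30 min at RT. Low-density CHMC (1000-1500 cells/well, per donor degranulation activity) in MT buffer, 1 hr at 37° C, then anti-IgE challenge 30 min at 37° C.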

[3] = tested on: bone marrow derived mast cells (BMMC); assay: BMMC high cell density IgE activation: IL-6; format: cell-based, mouse; conditions: high cell density; read-out: BMMC anti-IgE IL-6
Description: (§6) After sensitizing, cells are counted, pelleted (1000 rpm, 5-10 minutes), and resuspended at 1-3×10^6 cells/ml in MT buffer. Add 100 ul of cell suspension to each well and 100 ul of compound dilutions. The final vehicle concentration is 0.5% DMSO. Incubate at 37° C. (5% CO2) for 1 hour. After 1 hour of compound treatment, stimulate cells with 6× stimulus (60 ng/ml DNP-BSA). Mix wells with the cells and allow plates to incubate at 37° C. (5% CO2) for one hour. After 1 hour incubation, pellet cells (10 minutes, 1000 RPM) and collect 200 ul per well of the supernatant, being careful not to disturb pellet, and transfer to a clean tube or 96-well plate. Place the supernatant plate on ice. During the 4-5 hour step (see next) perform the hexosiminidase assay. Resuspend cell pellet in 240 ul WEI-conditioned media containing 0.5% DMSO and corresponding concentration of compound. Incubate BMMC cells for 4-5 hours at 37° C. (5% CO2). After incubation, pellet cells (1000 RPM, 10 minutes) and collect 225 ul per well and place in −80° C. until ready to perform ELISAS. ELISAS are performed on appropriately diluted samples (determined empirically for each donor cell population so that the sample measurement falls within the standard curve) following the supplier's instructions.

[4] = tested on: bone marrow derived mast cells (BMMC); assay: BMMC high cell density IgE activation: hexosaminidase; format: cell-based, mouse
[5] = tested on: Human Jurkat T-cells (clone N); assay: Jurkat T-cell activation (anti-TCR, CD69 upregulation); format: cell-based
In short: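 Readout is CD69 upregulation by flow cytometry (anti-CD69-APC, 20 min at 4 °C) after 20 h anti-TCR (C305, 500 ng/ml) stimulation at 37 °C.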

[6] = biological target: T1, Syk kinase (Homo sapiens, UniProt P43405); assay: Syk kinase biochemical fluorescence polarization assay; conditions: isolated Syk kinase, fluorescence polarization, 4 uM ATP
T1 construct: purchased Upstate, Lake Placid NY

[7] = tested on: Primary T-cells; assay: Primary T-cell cytokine production (αCD3/αCD28): IFNg; format: cell-based, human; conditions: read-out: 1° T-Cell IFNg IC50
Description: as §1, §2, §3, §4, §5

[8] = tested on: Primary T-cells; assay: Primary T-cell cytokine production (αCD3/αCD28): GMSCF; format: cell-based, human; conditions: read-out: 1° T-Cell GMSCF IC50
Description: as §1, §2, §3, §4, §5

[9] = tested on: bone marrow derived mast cells (BMMC); assay: BMMC high cell density IgE activation: TNFalpha; format: cell-based, mouse; conditions: high cell density; read-out: BMMC anti-IgE TNF-alpha
Description: as §6

[10] = tested on: Primary T-cells; assay: Primary T-cell cytokine production (αCD3/αCD28): TNF; format: cell-based, human; conditions: read-out: 1° T-Cell TNF IC50
Description: as §1
(5% CO2) for at 3-5 hours. After incubation with the stimulation antibodies, the cocktail was removed and the plates washed 3 times with PBS prior to addition of the primary T cell/compound mixture.
as §3, §4, §5

[11] = tested on: cultured human mast cells (CHMC); assay: CHMC low cell density ionomycin activation: tryptase assay; format: cell-based
[12] = tested on: Primary T-cells; assay: Primary T-cell cytokine production (αCD3/αCD28): IL-4; format: cell-based, human; conditions: read-out: 1° T-Cell IL4 IC50
Description: as §1, §2, §3, §4, §5

[13] = tested on: bone marrow derived mast cells (BMMC); assay: BMMC high cell density ionomycin activation: hexosaminidase; format: cell-based, mouse; conditions: read-out: BMMC Ionomycin Hexos.
Description: Add 50 uL of BMMC cell supernatant (see above) to the hexoseaminidase substrate, place at 37° C. for 30 minutes and read the plate at 5, 10, 15, and 30 minutes on a spectrophotometer.

[14] = tested on: basophil cells (human peripheral blood); assay: Basophil ionomycin activation: histamine release assay; format: cell-based; conditions: basophils, ionomycin activation, histamine release; read-out: Basophils Ionomycin Histamine IC50
In short: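 Dextran-sedimented leukocytes from peripheral blood of dust-mite-allergic human donors were incubated with compound (8 concentrations, 0.5% DMSO, triplicate) and then stimulated with 2 μM ionomycin stock (20 μl added) for 30 min at 37° C. Histamine released into the supernatant was measured by ELISA.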

[15] = tested on: basophil cells (human peripheral blood); assay: Basophil anti-IgE activation: histamine release assay; format: cell-based; conditions: basophils, anti-IgE activation, histamine release; read-out: Basophils anti-IgE Histamine IC50
Description: The basophil activation assay was carried out using whole human peripheral blood from donors allergic to dust mites with the majority of the red blood cells removed by dextran sedimentation. Human peripheral blood was mixed 1:1 with 3% dextran T500 and RBCs were allowed to settle for 20-25min. The upper fraction was diluted with 3 volumes of D-PBS and cells were spun down for 10 min at 1500 rpm, RT. Supernatant was aspirated and cells were washed in an equal volume MT-buffer. Finally, cells were resuspended in MT-buffer containing 0.5% DMSO in the original blood volume. 80 uL cells were mixed with 20 uL compound in the presence of 0.5% DMSO, in triplicate, in a V-bottom 96-well tissue culture plate. A dose range of 8 compound concentrations was tested resulting in a 10-point dose response curve including maximum (stimulated) and minimum (unstimulated) response. […] The cells were stimulated for 30 minutes at 37° C., 5% CO2. The plate was spun for 10 min at 1500 rpm at room temperature and 80 uL the supernatant was harvested for histamine content analysis using the histamine ELISA kit supplied by Immunotech. The ELISA was performed according to supplier's instructions.

[16] = tested on: B-cell line BJAB; assay: BJAB (B-cell) toxicity, light scatter; format: cell-based; conditions: read-out: Toxicity BJAB Light Scat.
Description: The B-cell line BJAB was cultured in log phase in RPMI1640+10% heat-inactivated fetal bovine serum, 1× L-glutamine, 1× penicillin, 1× […] and 1× beta-mercaptoethanol at 37° C., 5% CO2. First, BJABs were harvested, spun and resuspended in culture medium to a concentration of 7.7×10^5 cells/mL. 65 uL cells were mixed with 65 uL compound, in duplicate and in the presence of 0.1% DMSO in a V-bottomed 96-well tissue culture plate. Cells were incubated with compound at various dilutions at 37° C., 5% CO2. Toxicity was assessed by flow cytometric analysis of cellular light scatter.

[17] = tested on: Jurkat cells; assay: Jurkat (T-cell) toxicity, light scatter; format: cell-based, human; conditions: read-out: Toxicity Jurkat Light Scat.
Description: Dilute Jurkat cells to 2×10^5 cells/ml in complete RPMI (10% heat-inactivated fetal bovine serum) media and incubate at 37° C., 5% CO2 for 18 hours. Add 65 ul cells at 7.7×10^5 cells/ml to a 96-well V-bottom plate (TC-treated, Costar) containing 65 ul 2× compound (final vehicle concentration is 0.5% DMSO, 1.5% MeOH). Mix, incubate plates for 18-24 hr at 37° C., 5% CO2. Toxicity was assessed by flow cytometric analysis of cellular light scatter

[18] = tested on: cultured human mast cells (CHMC); assay: CHMC low cell density IgE activation: LTC4 assay; format: cell-based; conditions: anti-IgE activation, LTC4 release
In short: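 Degranulation measured after 30 min anti-IgE challenge at 37° C of CHMC plated at 1000-1500 cells/well following 1 h preincubation. Readouts: LTC4 by ELISA on donor-specific diluted supernatants, and tryptase activity from a 30 min room-temperature substrate reaction.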

[19] = tested on: cultured human mast cells (CHMC); assay: CHMC low cell density IgE activation: hexosaminidase assay; format: cell-based; conditions: anti-IgE activation, hexosaminidase release, read-out: CHMC anti-IgE Hexos. IC50
Description: (§7) Inhibition of degranulation was measured at both low and high cell density by quantifying the release of the granule specific factors tryptase, histamine and hexosaminidase. Inhibition of release and/or synthesis of lipid mediators was assessed by measuring the release of leukotriene LTC4 and inhibition of release and/or synthesis of cytokines was monitored by quantifying TNF-α, IL-6 and IL-13. Tryptase and hexosaminidase were quantified using fluorogenic substrates as described in their respective examples. Histamine, TNFα, IL-6, IL-13 and LTC4 were quantified using the following commercial ELISA kits: histamine (Immunotech #2015, Beckman Coulter), TNFα (Biosource #KHC3011), IL-6 (Biosource #KMC0061), IL-13 (Biosource #KHC0132) and LTC4 (Cayman Chemical #520211). The protocols of the various assays are provided below.

[20] = tested on: cultured human mast cells (CHMC); assay: CHMC low cell density ionomycin activation: hexosaminidase assay; format: cell-based; conditions: hexosaminidase release, read-out: CHMC Ionomycin Hexos. IC50
Description: as §7

[21] = High Density, read-out: BMMC anti-IgE hexos

SMILES | IC50 [5] | IC50 [4, 21] | IC50 [13] | IC50 [14] | IC50 [15] | IC50 [16] | IC50 [17] | IC50 [18] | IC50 [19] | IC50 [20] | also measured
CNC(=O)COc1cccc(Nc2ncc(F)c(Nc3ccc4c(c3)NC(=O)[C@H](C)O4)n2)c1 [Compound R909317] | 0.224 µM | – | – | – | – | – | – | – | – | – | IC50 [1]: 1.32 µM; IC50 [2]: 0.0287 µM; IC50 [3]: 0.006 µM; IC50 ([4]; high cell density, read-out: BMMC anti-IgE Hexos.): 0.002 µM; IC50 [6]: 0.008 µM; IC50 [7]: 1.57 µM; IC50 [8]: 1.74 µM; IC50 [9]: 0.007 µM; IC50 [10]: 0.595 µM; IC50 ([11]; low cell density, read-out: CHMC Ionomycin Tryptase): > 10 µM; IC50 [12]: 0.876 µM
CCOc1ccc(Nc2nc(Nc3ccc(OC)c(OC)c3)ncc2F)cc1 [Compound R926108] | 10.4 µM | 0.9 µM | > 10 µM | > 10 µM | 0.95 µM | > 10 µM | > 10 µM | 0.76 µM | 0.787 µM | 6.4 µM | –
CCOc1ccc(Nc2nc(Nc3cccc(O)c3)ncc2F)cc1 [Compound R926146] | > 10 µM | 1.35 µM | 5 µM | – | – | > 10 µM | > 10 µM | 1.59 µM | 0.761 µM | 6.7 µM | –
Oc1cccc(Nc2ncc(F)c(Nc3ccc4c(c3)OCCO4)n2)c1 [Compound R926210] | 4.38 µM | 0.6 µM | > 10 µM | > 10 µM | 0.37 µM | > 10 µM | > 10 µM | 0.8 µM | – | > 10 µM | IC50 ([11]; Low Density CHMC, ionomycin activation, tryptase release, read-out: CHMC Ionomycin Tryptase IC50): > 10 µM
